Data set [1] is described as follows: Plasma protein binding rate, equilibrium dialysis, human plasma. Type of data set: in vitro ADME. To be noted: equilibrium dialysis 37° C. 4 hours, read-out: Plasma Protein Binding PPB bound(%) (converted). The protocol:
Determination of the Plasma Protein Binding Rate of the Compound
The protein-binding rates of the test compound in the plasma of CD-1 mice, SD rats and human were evaluated by the equilibrium dialysis method. Compound 1 was diluted into the plasma of the above three species respectively to prepare samples with a final concentration of 2 μM. The samples were then added to a 96-well equilibrium dialysis device, and dialyzed against phosphate buffer solution at 37° C. for 4 hours. Warfarin was used as a control compound in the assay. The concentrations of the test compound and warfarin in the plasma and buffer were determined by LC-MS/MS method.
For orientation: In equilibrium dialysis free small molecules cross a membrane that holds back macromolecules.

Data set [2] has as its system human cytomegalovirus (HCMV). The data set is described as follows: Fluorescence decay assay against human cytomegalovirus. Type of data set: cell-based. Particulars: Human betaherpesvirus 5, 240 h; US3-6-EGFP-HCMV-AD169 in MRCS cells, 10 days of culture, GFP fluorescence intensity. The procedure: Fluorescence Decay Assay Against Human Cytomegalovirus
The antiviral activity of the compound against human cytomegalovirus (HCMV) was evaluated by determining the median effective concentration (EC50) value of the compound. The HCMV used in this assay was inserted with enhanced green fluorescent protein (EGFP) as a reporter gene by gene recombination, and thus the replication of the virus in cells can be reflected by the expression level of GFP. The inhibitory activity of the compound on the expression of GFP in HCMV was evaluated by determining the fluorescence intensity in the wells of different concentrations of the compound using a high-content cell analysis platform Acumen eX3.
Fluorescence Decay Assay Against HCMV
MRCS cells were inoculated into a black 96-well cell culture plate at a density of 20,000 cells per well, and then incubated overnight in a 37° C., 5% CO2 incubator. US3-6-EGFP-HCMV-AD169 viruses were added to the cell culture wells at a certain MOI (0.003 to 0.1), and incubated in a 37° C., 5% CO2 incubator for 3 hours. After adsorption of viruses, the medium containing viruses was pipetted out, and 200 μl of cell culture medium containing different concentrations of the compound (4-fold dilution, 6 test concentrations) was added. […] After 10 days of culture, the fluorescence intensity was detected with a high content cell analysis platform Acumen eX3 (TTP LabTech). […]

In a further data set the test system is HCMV (strain: GFP-AD169). Nature of the data set: Human cytomegalovirus (HCMV) transplantation model in mice. Type of data set: in vivo. To be noted: NOD SCID mice, 8 mg/kg orally once per day. The protocol:
Human Cytomegalovirus (HCMV) Transplantation Model in Mice
Gelatin sponge containing HCMV was transplanted into mice. After 9 days of continuous administration, the gelatin sponge was collected for plaque detection. The anti-HCMV effect of the compound in this model was evaluated by detecting the amount of HCMV in the gelatin sponge.
The animals used in the assay were NOD SCID mice (purchased from Shanghai SLAC Laboratory Animal Co., Ltd.), 5 weeks old, and male. There were 5 animals in each group. The day on which the mice were subjected to gelatin sponge transplantation was set as day 0. Human foreskin fibroblasts (HFF, MOI=0.03) were infected with HCMV (strain: GFP-AD169) in advance, and then the HFF cells infected with HCMV were added to 1 cm^2 gelatin sponges and incubated for use. The animals were anesthetized by intraperitoneal injection of pentobarbital sodium at a dose of 75 mg/kg (10 ml/kg). After the animals entered the deep anesthesia state, the treated gelatin sponges were subcutaneously transplanted into the back of the mice. From day 1 to day 9, 8 mg/kg (10 ml/kg) of compound 1 was administered orally once per day. On the day 9, four hours after the administration, the gelatin sponges were taken out and digested, and then the plaques were detected.

For orientation: EC50 means the concentration needed to bring the measured effect to its halfway point. As to `COc1cc(N2CCN(C3=Nc4ccsc4[C@H](CC(=O)O)N3c3cc(C(F)(F)F)ccc3OC)C[C@H]2C)ccn1` (single isomer, unassigned) [Compound 1], the fraction unbound at 4 h, 2 μM in data set [1] is 0.06. Besides, in data set [2], the EC50 was found to be 0.2 nM. Moreover, in the data set with HCMV (strain: GFP-AD169) (day 1 to day 9), the “body weights of the mice” value is “stable” and the clinical observations result is on record as “no abnormality was found”. Also, in the data set on HCMV (strain: GFP-AD169) (gelatin sponge with HCMV-infected HFF, day 1 to day 9, plaque detection), the “decrease in HCMV viral load” value is reported as 2.38 log PFU/ml.

(Values after US11174270B2, “Crystal form of 3,4-dihydrothieno[3,2-d]pyrimidine compound and preparation method thereof” (PHAENO THERAPEUTICS CO., LTD., priority 2018, dated 2021).)
